Assay results taken from patent US20250387366A1, “TOPICAL OCULAR DELIVERY OF CROMAKALIM” (QLARIS BIO, INC., priority 2022, published 2025).
Converted amounts (≈) assume the structure as drawn. Where two headings read alike, the source gives them in different places.

Assays:
[1] = system: patients with primary open-angle glaucoma; conditions: Phase 2; cited from earlier work
KATP channels = conditions: in the presence of ATP (Brayden et al. 1991); cited from earlier work
[2] = Toxicokinetics of levcromakalim in plasma, BID T.O. bilateral formulation 3d for 28 days in rabbits (Example 12, Table 11); assay type: in vivo, rabbit; conditions: for AUC(0-t) / Cmax / Tmax / half-life: DB, rabbit, plasma, topical or ocular; for tlast: in h (unit assumed)
Experimental: Plasma concentrations of levcromakalim were evaluated in DB rabbits after twice a day (BID) oculus uterque (OU, both eyes) topical ophthalmic (T.O.) administration of formulation 3d for 28 days at dose levels of 0, 0.012, 0.03, and 0.06 mg/eye/dose.
Plasma concentrations of levcromakalim were evaluated in DB rabbits after BID OU T.O. administration of three concentrations of formulation 3d at dose levels of 0, 0.012, 0.03, and 0.06 mg/eye/dose (0, 0.024, 0.06, and 0.12 mg/eye/day respectively or 0.030% [1.0 mM], 0.075% [2.5 mM], or 0.15% [5 mM] respectively) for 28 days. Plasma was collected from 3 animals/dose group at pre-dose, 0.5, 1, 2, 3, 4, 6, and 12 hours post-first dose on Days 1 and 28.

[3] = reported by SmithKline Beecham 1993 (Hamilton et al.); cited from earlier work
[4] = Solubility limit of levcromakalim in water (literature); assay type: physicochemical; conditions: converted from 0.48 mg/ml
Text: Therefore, the Chiang Lin tested material undoubtedly had insoluble material which would have a deleterious effect on the eye and nullify the results. The Hamilton article also stated that cromakalim is soluble in ethanol, DMSO and PEG, none of which would be acceptable as the topical ocular carrier for human administration.

[5] = female, 0.012 mg, females, 0.012 mg/eye/dose BID OU T.O. formulation 3d, Day 1, rabbit plasma
[6] = female, 0.012 mg, females, 0.012 mg/eye/dose BID OU T.O. formulation 3d, Day 28, rabbit plasma
[7] = female, 0.03 mg, females, 0.03 mg/eye/dose BID OU T.O. formulation 3d, Day 1, rabbit plasma
[8] = female, 0.03 mg, females, 0.03 mg/eye/dose BID OU T.O. formulation 3d, Day 28, rabbit plasma
[9] = female, 0.06 mg, females, 0.06 mg/eye/dose BID OU T.O. formulation 3d, Day 1, rabbit plasma
[10] = female, 0.06 mg, females, 0.06 mg/eye/dose BID OU T.O. formulation 3d, Day 28, rabbit plasma
[11] = females, 0.012 mg/eye/dose BID OU T.O. formulation 3d, Day 1, rabbit plasma
[12] = females, 0.012 mg/eye/dose BID OU T.O. formulation 3d, Day 28, rabbit plasma
[13] = females, 0.03 mg/eye/dose BID OU T.O. formulation 3d, Day 1, rabbit plasma
[14] = females, 0.03 mg/eye/dose BID OU T.O. formulation 3d, Day 28, rabbit plasma
[15] = females, 0.06 mg/eye/dose BID OU T.O. formulation 3d, Day 1, rabbit plasma
[16] = females, 0.06 mg/eye/dose BID OU T.O. formulation 3d, Day 28, rabbit plasma
[17] = male, 0.012 mg, males, 0.012 mg/eye/dose BID OU T.O. formulation 3d, Day 1, rabbit plasma
[18] = male, 0.012 mg, males, 0.012 mg/eye/dose BID OU T.O. formulation 3d, Day 28, rabbit plasma
[19] = male, 0.03 mg, males, 0.03 mg/eye/dose BID OU T.O. formulation 3d, Day 1, rabbit plasma
[20] = male, 0.03 mg, males, 0.03 mg/eye/dose BID OU T.O. formulation 3d, Day 28, rabbit plasma
[21] = male, 0.06 mg, males, 0.06 mg/eye/dose BID OU T.O. formulation 3d, Day 1, rabbit plasma
[22] = male, 0.06 mg, males, 0.06 mg/eye/dose BID OU T.O. formulation 3d, Day 28, rabbit plasma
[23] = males, 0.012 mg/eye/dose BID OU T.O. formulation 3d, Day 1, rabbit plasma
[24] = males, 0.012 mg/eye/dose BID OU T.O. formulation 3d, Day 28, rabbit plasma
[25] = males, 0.03 mg/eye/dose BID OU T.O. formulation 3d, Day 1, rabbit plasma
[26] = males, 0.03 mg/eye/dose BID OU T.O. formulation 3d, Day 28, rabbit plasma
[27] = males, 0.06 mg/eye/dose BID OU T.O. formulation 3d, Day 1, rabbit plasma
[28] = males, 0.06 mg/eye/dose BID OU T.O. formulation 3d, Day 28, rabbit plasma

## CC1(C)Oc2ccc(C#N)cc2[C@@H](N2CCCC2=O)[C@@H]1OP(=O)(O)O [QLS-101]
[1]
  hyperemia (eye redness): no evidence of hyperemia
  safety and tolerability profile: favorable safety and tolerability profile

## CC1(C)Oc2ccc(C#N)cc2C(N2CCCC2=O)C1O (centres unmarked) [Cromakalim]
KATP channels
  increase of open-state probability (Popen) of single KATP channels: more than 9 fold

## CC1(C)Oc2ccc(C#N)cc2[C@@H](N2CCCC2=O)[C@@H]1O [levcromakalim]
[2]; [5]
  AUC(0-t): 0.57 ng·h/mL
  Cmax: 0.64 ng/mL
  Tmax: 1.67 h
  half-life: 1.84 h
[2]; [6]
  AUC(0-t): 0.051 ng·h/mL
  Cmax: 0.56 ng/mL
  Tmax: 0.33 h
[2]; [7]
  AUC(0-t): 3.99 ng·h/mL
  Cmax: 1.75 ng/mL
  Tmax: 0.67 h
  half-life: 1.7 h
[2]; [8]
  AUC(0-t): 3.58 ng·h/mL
  Cmax: 1.76 ng/mL
  Tmax: 0.67 h
  half-life: 2.19 h
[2]; [9]
  AUC(0-t): 8.89 ng·h/mL
  Cmax: 2.85 ng/mL
  Tmax: 1 h
  half-life: 1.77 h
[2]; [10]
  Cmax: 2.06 ng/mL
  Tmax: 1.2 h
  half-life: 1.97 h
[2]; [11]
  AUCtlast/Dose: 23.74 ng·h/mL/mg
  Cmax/Dose: 26.67 ng/mL/mg
  tlast: 2.00
[2]; [12]
  AUCtlast/Dose: 21.11 ng·h/mL/mg
  Cmax/Dose: 23.21 ng/mL/mg
  tlast: 2.25
[2]; [13]
  AUCtlast/Dose: 66.44 ng·h/mL/mg
  Cmax/Dose: 29.22 ng/mL/mg
  tlast: 3.67
[2]; [14]
  AUCtlast/Dose: 59.64 ng·h/mL/mg
  Cmax/Dose: 29.41 ng/mL/mg
  tlast: 3.33
[2]; [15]
  AUCtlast/Dose: 74.06 ng·h/mL/mg
  Cmax/Dose: 23.73 ng/mL/mg
  tlast: 4.80
[2]; [16]
  AUCtlast: 6.05 ng·h/mL
  AUCtlast/Dose: 50.39 ng·h/mL/mg
  Cmax/Dose: 17.13 ng/mL/mg
  tlast: 4.80
[2]; [17]
  AUC(0-t): 0.94 ng·h/mL
  Cmax: 0.77 ng/mL
  Tmax: 1.17 h
[2]; [18]
  AUC(0-t): 0.14 ng·h/mL
  Cmax: 0.37 ng/mL
  Tmax: 0.33 h
[2]; [19]
  AUC(0-t): 3.96 ng·h/mL
  Cmax: 2.26 ng/mL
  Tmax: 0.67 h
  half-life: 1.28 h
[2]; [20]
  AUC(0-t): 2.53 ng·h/mL
  Cmax: 1.68 ng/mL
  Tmax: 0.5 h
  half-life: 2.88 h
[2]; [21]
  AUC(0-t): 5.64 ng·h/mL
  Cmax: 2.61 ng/mL
  Tmax: 0.7 h
  half-life: 1.72 h
[2]; [22]
  Cmax: 2.58 ng/mL
  Tmax: 0.6 h
  half-life: 2.29 h
[2]; [23]
  AUCtlast/Dose: 39.23 ng·h/mL/mg
  Cmax/Dose: 32.12 ng/mL/mg
  tlast: 1.50
[2]; [24]
  AUCtlast/Dose: 5.78 ng·h/mL/mg
  Cmax/Dose: 15.40 ng/mL/mg
  tlast: 0.500
[2]; [25]
  AUCtlast/Dose: 66.06 ng·h/mL/mg
  Cmax/Dose: 28.88 ng/mL/mg
  tlast: 3.00
[2]; [26]
  AUCtlast/Dose: 42.11 ng·h/mL/mg
  Cmax/Dose: 28.05 ng/mL/mg
  tlast: 2.33
[2]; [27]
  AUCtlast/Dose: 47.04 ng·h/mL/mg
  Cmax/Dose: 21.78 ng/mL/mg
  tlast: 3.60
[2]; [28]
  AUCtlast: 6.11 ng·h/mL
  AUCtlast/Dose: 50.96 ng·h/mL/mg
  Cmax/Dose: 21.48 ng/mL/mg
  tlast: 4.20
[3]
  solubility limit in water: 480 µg/mL (≈ 1680 µM)
[4]
  solubility limit in water: 0.048 % w/w
